Laboratory results taken from ChEMBL document CHEMBL3784914, “Bioactive lignan constituents from the twigs of Sambucus williamsii” (Bioorg Med Chem Lett, 2016).

Tests used:
A549 = experiment: Cytotoxicity against human A549 cells by SRB assay; format: functional, cell-based
[1] = Cytotoxicity against human SKOV3 cells by SRB assay; format: functional, cell-based; settings: SK-OV-3
SK-MEL-2 = experiment: Cytotoxicity against human SK-MEL-2 cells by SRB assay; format: functional, cell-based
XF498 = experiment: Cytotoxicity against human XF498 cells by SRB assay; format: functional, cell-based
[2] = Anti-neuroinflammatory activity in LPS-activated mouse BV2 cells assessed as inhibition of NO production after 24 hrs by Griess assay; format: functional, cell-based; settings: BV-2, 24 h
[3] = Cytotoxicity against mouse BV2 cells assessed as cell viability at 20 uM by MTT assay; format: cell-based, BV-2; settings: read-out: Activity
[4] = Cytotoxicity in rat C6 cells assessed as cell viability at 20 uM after 24 hrs by MTT assay; format: cell-based; settings: read-out: Activity
C6 = experiment: Neuroprotective activity in rat C6 cells assessed as NGF secretion at 20 uM after 24 hrs by ELISA; format: functional

| IC50 [2] [µM] | SMILES | IC50 (A549) [µM] | IC50 [1] [µM] | IC50 (SK-MEL-2) [µM] | IC50 (XF498) [µM] | viability at 20 µM [3] [%] | viability at 24 h, 20 µM [4] [%] | Activity (C6) [%] |
| --- | --- | --- | --- | --- | --- | --- | --- | --- |
| 45.6 | COc1cc([C@H]2OC[C@H]3[C@@H]2CO[C@@H]3c2cc(OC)c(O)c(OC)c2)ccc1O | > 30 | > 30 | > 30 | > 30 | 127 | 103 | 96.39 |
| 129 | COc1cc(C(O)[C@H]2CO[C@H](c3ccc(O)c(OC)c3)[C@H]2CO)ccc1O (stereo not given in full) | > 30 | > 30 | > 30 | > 30 | 114 | 104 | 101.55 |
| 34.2 | COc1cc([C@@H]2OC[C@@H]3[C@H]2CO[C@H]3c2ccc(O)c(OC)c2)ccc1O [(+)-PINORESINOL] | > 30 | > 30 | > 30 | > 30 | 148 | 105 | 106.93 |
| 40 | COc1cc([C@@H]2Oc3c(OC)cc(CCCO)cc3[C@H]2CO)ccc1O [DIHYDRODEHYDRODICONIFERYL ALCOHOL] | > 30 | > 30 | > 30 | > 30 | 129 | 105 | 97.14 |
| 72.6 | COc1cc(C[C@H]2CO[C@H](c3ccc(O)c(OC)c3)[C@H]2CO)ccc1O [LARICIRESINOL] | > 30 | > 30 | > 30 | > 30 | 147 | 101 | 77.31 |

Continued, molecule first:

| SMILES | IC50 [2] [µM] | IC50 (A549) [µM] | IC50 [1] [µM] | IC50 (SK-MEL-2) [µM] | IC50 (XF498) [µM] | viability at 20 µM [3] [%] | viability at 24 h, 20 µM [4] [%] | Activity (C6) [%] |
| --- | --- | --- | --- | --- | --- | --- | --- | --- |
| COc1cc(C[C@H]2CO[C@H](c3ccc(O)c(OC)c3)[C@@]2(O)CO)ccc1O | 215 | > 30 | > 30 | > 30 | > 30 | 151 | 103 | 107.88 |
| COc1cc(/C=C/C(=O)OCCCc2cc(OC)c3c(c2)[C@@H](CO)[C@H](c2cc(OC)c(O[C@@H](CO)[C@H](O)c4ccc(O)c(OC)c4)c(OC)c2)O3)ccc1O | 6.82 | 13.2 | 15.7 | 11.1 | 18.1 | 157 | 92.3 | 183.95 |
| COc1cc(C[C@@H]2CO[C@H](c3ccc(O)c(OC)c3)[C@]2(O)CO)ccc1O | > 500 | > 30 | > 30 | > 30 | > 30 | 128 | 106 | 107.97 |
| COc1cc(/C=C\C(=O)OCCCc2cc(OC)c3c(c2)[C@@H](CO)[C@H](c2cc(OC)c(O[C@H](CO)[C@H](O)c4ccc(O)c(OC)c4)c(OC)c2)O3)ccc1O | 14.7 | 15.8 | 17.6 | 11.4 | 19.6 | 138 | 97 | 155.96 |
| COc1cc(/C=C/C(=O)OCCCc2cc(OC)c3c(c2)[C@@H](CO)[C@H](c2cc(OC)c(O[C@H](CO)[C@H](O)c4ccc(O)c(OC)c4)c(OC)c2)O3)ccc1O | 7.04 | 16.4 | 17.5 | 14.1 | 18.4 | 146 | 82.7 | 153.99 |
| COc1cc([C@@H]2c3cc4c(cc3[C@@H](O[C@@H]3O[C@@H]5CO[C@@H](C)O[C@H]5[C@H](O)[C@H]3O)[C@H]3COC(=O)[C@H]23)OCO4)cc(OC)c1O [ETOPOSIDE] | – | – | 0.84 | – | – | – | – | – |
| CCCCC/C=C/C(=O)CCc1ccc(O)c(OC)c1 [SHOGAOL] | – | – | – | – | – | – | 105 | 151.75 |
| CNC(=N)NCCC[C@H](N)C(=O)O [TILARGININE] | 20.8 | – | – | – | – | 102 | – | – |
